Measurements published in PMC11472320, “Computationally Driven Discovery of a BCR-ABL1 Kinase Inhibitor with Activity in Multidrug-Resistant Chronic Myeloid Leukemia” (Journal of Medicinal Chemistry, 2024).

Assays:
P-glycoprotein (P-gp) = settings: Figure 1A; cited from earlier work
in vitro [1] = settings: human, Caco-2
MDCKII-MDR1 cells = assay: MDCKII-MDR1 permeability; settings: Table S7
MDR1 = assay: in vitro; settings: dog, MDCK-MDR1
in vitro [2] = settings: dog, MDCK-MDR1
Caco-2 cells = assay: Caco-2 permeability; settings: Table S9
[3] = cited from earlier work

Which P-gp efflux status (P-glycoprotein (P-gp)) does the source give for `O=C(Nc1ccc(OC(F)(F)Cl)cc1)c1cnc(N2CC[C@@H](O)C2)c(-c2ccn[nH]2)c1` [Asciminib, asciminib] here?
The P-gp efflux status was “P-gp Substrate”.

For `Cc1nc(Nc2ncc(C(=O)Nc3c(C)cccc3Cl)s2)cc(N2CCN(CCO)CC2)n1` [Dasatinib, dasatinib], which P-gp efflux status (P-glycoprotein (P-gp)) is on record?
Its P-gp efflux status is “P-gp Substrate”.

For `C[C@H]1O[C@@H](O[C@H]2[C@@H](O)C[C@H](O[C@H]3[C@@H](O)C[C@H](O[C@H]4CC[C@@]5(C)[C@H](CC[C@@H]6[C@@H]5C[C@@H](O)[C@]5(C)[C@@H](C7=CC(=O)OC7)CC[C@]65O)C4)O[C@@H]3C)O[C@@H]2C)C[C@H](O)[C@@H]1O` [Digoxin, reference compound], which Papp A→B (in vitro [1]) is on record?
The Papp A→B was 0.22 ×10⁻⁶ cm/s.

And the Papp B→A (in vitro [1])?
Its Papp B→A is 12.6 ×10⁻⁶ cm/s.

What about the efflux ratio (in vitro [1]) of the same compound?
Its efflux ratio is 58.6.

What about the recovery (in vitro [1]) of the same compound?
Its recovery is 89.9%.

What about the “Recovery% (BL-AP)” value (MDCKII-MDR1 cells) of the same compound?
The value was 93.20%.

What about the Papp A→B (MDR1) of the same compound?
Its Papp A→B is 0.62 ×10⁻⁶ cm/s.

What about the Papp B→A (MDR1) of the same compound?
Its Papp B→A is 13.9 ×10⁻⁶ cm/s.

And the efflux ratio (MDR1)?
Its efflux ratio is 22.7.

What about the recovery (in vitro [2]) of the same compound?
Its recovery is 82.4%.

What about the “Recovery% (BL-AP)” value (Caco-2 cells) of the same compound?
The value was 92.72%.

Which P-gp efflux status (P-glycoprotein (P-gp)) does the source give for `Cc1ccc(NC(=O)c2ccc(CN3CCN(C)CC3)cc2)cc1Nc1nccc(-c2cccnc2)n1` [Imatinib, imatinib] here?
The P-gp efflux status was “P-gp Substrate”.

With `COCCc1ccc(OCC(O)CNC(C)C)cc1` (stereo not drawn) [Metoprolol, reference compound] as the compound, how does the Papp A→B (in vitro [1]) read?
Its Papp A→B is 18.8 ×10⁻⁶ cm/s.

And the Papp B→A (in vitro [1])?
The Papp B→A was 19.4 ×10⁻⁶ cm/s.

And the recovery (in vitro [1])?
The recovery was 95.3%.

What about the “Recovery% (BL-AP)” value (MDCKII-MDR1 cells) of the same compound?
The value was 99.15%.

And the Papp A→B (MDR1)?
Its Papp A→B is 31.6 ×10⁻⁶ cm/s.

And the Papp B→A (MDR1)?
Its Papp B→A is 28.1 ×10⁻⁶ cm/s.

And the efflux ratio (MDR1)?
The efflux ratio was 0.89.

And the recovery (in vitro [2])?
Its recovery is 112%.

And the “Recovery% (BL-AP)” value (Caco-2 cells)?
The value was 95.54%.

Which “Abraham ANMR Value” [3] does the source give for `Fc1c2c(cc3ncnc(Nc4ccccc4)c13)OCCO2` [compound 9] here?
The value was 0.10.

Which “Abraham ANMR Value” [3] does the source give for `COc1c2c(cc3ncnc(Nc4ccccc4)c13)OCCO2` [compound 10] here?
Its value is 0.02.
